Consider two compounds from patent US10253030B2, “Crystal form, preparation method and intermediate of dihydropyrido ring compound” (QILU PHARMACEUTICAL CO., LTD., priority 2015, dated 2019).

SMILES strings stand for the structures.

One assay relates to Hepatitis B virus. Conditions: prior art, Science, 299 (2003), 893-896; cited from earlier work.
The subject of the next assay is HBV. The assay can be described thus: qPCR assay for HBV in vitro test (HBV DNA content in HepG2.2.15 cells). It counts as cell-based. The protocol:
qPCR Assay for HBV In Vitro Test
The HBV DNA content in HepG2.2.15 cells was detected by real-time qPCR assay, and the EC50 values of the compounds were used as indicators to evaluate the inhibitory effect of the compounds on HBV.
2.1 Cell Line: HepG2.2.15 Cells
3.1 HepG2.2.15 cells (4×10^4 cells/well) were seeded in a 96-well plate and incubated at 37° C. under 5% CO 2 overnight.
3.2 On the second day, the compound was diluted into a total of 8 concentrations with 3-fold gradient dilution. Different concentrations of the compound were added to the culture wells, in duplicate. The final concentration of DMSO in the culture medium was 1%. 1 μM GLS4 was used as 100% inhibition control; 1% DMSO was used as 0% inhibition control.
3.3 On the fifth day, the fresh culture medium containing the compound was replaced.
3.4 On the eighth day, the culture medium in the culture wells was collected and DNA was extracted using a high-throughput DNA purification kit (Qiagen-51162). Refer to the product manual for the specific procedure.
3.1 15 μl of reaction mixture was added to each well of a 96-well PCR plate, then 10 μl of sample DNA or standard of HBV DNA to each well.
3.2 PCR reaction conditions: heating at 95° C. for 10 minutes; then denaturing at 95° C. for 15 seconds, extension at 60° C. for 1 minute, a total of 40 cycles. […]
In general terms: Real-time PCR tracks product formation cycle by cycle.

A word on the IC50: it is the concentration that inhibits the measured activity by half.

On to `Nc1ccn([C@@H]2CS[C@H](CO)O2)c(=O)n1` [Iamivudine], for which the half-inhibitory concentration (IC50) with Hepatitis B virus was 300 nM.

For `COC(=O)C1=C2C[C@H](NS(N)(=O)=O)CN2C(c2nccs2)=N[C@H]1c1ccc(F)c(F)c1F` [Compound 1], in the assay on HBV (Hepatitis B virus, 192 h, HBV DNA in culture medium by real-time qPCR, day 8, read-out: Concentration for 50% of inhibition (EC50) value on HBV), the EC50 is no more than 100 nM. Also, in the assay on HBV (qPCR, conclusion in words), the “inhibitory effect on HBV DNA” value was “significant inhibitory effect on HBV DNA”.
